# Values of other authors in PubChem BioAssay AID1259409 (Chemical Carcinogenesis Research Information System (CCRIS), 2018).
# Test system: rodent chemically induced tumor inhibition, incidence and multiplicity
# Experiment: CCRIS tumor inhibitor studies
# Details: Dose [Inhibitor]: 0, Promoter: NONE USED
smiles,measurement,setting,value
C=C(C)[C@H]1CC=C(C)CC1,"tumour outcome (control, treated, inhibition, significance)","Carcinogen: METHYLCHOLANTHRENE, 56-49-5, 0.5 ML 1/WK FOR 1 YR BEGINNING POST CARCINOGEN TREATMENT (STUDY DURATION: 24 MO), Route [Inhibitor]: GAVAGE, Species: MOUSE, Strain/Sex: SWISS/MALE, Target Tissue: Type of Lesion: SKIN: SARCOMA AND CARCINOMA, Dose [Carcinogen]: 0.01 MG ON D 1, 7, 14 AND 21 AFTER BIRTH","5/13 (38%), 2/14 (14%), 63%, not calculated"
same,"tumour outcome (control, treated, inhibition, significance)","Carcinogen: METHYLCHOLANTHRENE, 56-49-5, 0.5 ML 1/WK FOR 1 YR BEGINNING POST CARCINOGEN TREATMENT (STUDY DURATION: 24 MO), Route [Inhibitor]: GAVAGE, Species: MOUSE, Strain/Sex: SWISS/MALE, Target Tissue: Type of Lesion: SPLEEN: LYMPHOMA, Dose [Carcinogen]: 0.01 MG ON D 1, 7, 14 AND 21 AFTER BIRTH","2/13 (15%), 3/14 (21%), -40%, not calculated"
same,"tumour outcome (control, treated, inhibition, significance)","Carcinogen: N-ETHYL-N-HYDROXYETHYLNITROSAMINE, 13147-25-6, 150 MG/KG/D IN CORN OIL 5 D/WK FOR 30 WK BEGINNING POST CARCINOGEN TREATMENT (STUDY DURATION: 32 WK), Route [Inhibitor]: GAVAGE, Species: RAT, Strain/Sex: F344/MALE, Target Tissue: Type of Lesion: LIVER: TUMOR, Dose [Carcinogen]: 500 PPM IN DRINKING WATER FOR 2 WK","26/30 (87%), 17/31 (55%), 37%, p<0.01"
same,"tumour outcome (control, treated, inhibition, significance)","Carcinogen: N-NITROSOMETHYLUREA, 684-93-5, 5% IN DIET BEGINNING 1 WK POST CARCINOGEN TREATMENT AND CONTINUING FOR DURATION OF STUDY (STUDY DURATION: 23 WK), Route [Inhibitor]: ORAL, Species: RAT, Strain/Sex: WISTAR/FEMALE, Target Tissue: Type of Lesion: MAMMARY GLAND: TUMOR, Dose [Carcinogen]: 50 MG/KG ONCE","80%, 50%, 38%, p<0.001"
same,"tumour outcome (control, treated, inhibition, significance)","Carcinogen: N-NITROSOMETHYLUREA, 684-93-5, 5% IN DIET BEGINNING 2 WK PRIOR TO CARCINOGEN TREATMENT AND CONTINUING FOR DURATION OF STUDY (STUDY DURATION: 23 WK), Route [Inhibitor]: ORAL, Species: RAT, Strain/Sex: WISTAR/FEMALE, Target Tissue: Type of Lesion: MAMMARY GLAND: TUMOR, Dose [Carcinogen]: 50 MG/KG ONCE","80%, 45%, 47%, p<0.001"
same,"tumour outcome (control, treated, inhibition, significance)","Carcinogen: N-NITROSOMETHYLUREA, 684-93-5, 5% IN DIET FOR 2 WK PRIOR TO AND 1 WK POST CARCINOGEN TREATMENT (STUDY DURATION: 23 WK), Route [Inhibitor]: ORAL, Species: RAT, Strain/Sex: WISTAR/FEMALE, Target Tissue: Type of Lesion: MAMMARY GLAND: TUMOR, Dose [Carcinogen]: 50 MG/KG ONCE","80%, 74%, 8%, not significant"
same,"tumour outcome (control, treated, inhibition, significance)","Carcinogen: SAFROLE, 94-59-7, 0.5 ML 1/WK FOR 1 YR BEGINNING POST CARCINOGEN TREATMENT (STUDY DURATION: 24 MO), Route [Inhibitor]: GAVAGE, Species: MOUSE, Strain/Sex: SWISS/FEMALE, Target Tissue: Type of Lesion: LUNG: PAPILLARY ADENOCARCINOMA, Dose [Carcinogen]: 0.2 MG ON D 1 AND 7 AFTER BIRTH THEN 0.4 MG ON D 14 AND 21","3/18 (17%), 2/19 (11%), 35%, not calculated"
same,"tumour outcome (control, treated, inhibition, significance)","Carcinogen: SAFROLE, 94-59-7, 0.5 ML 1/WK FOR 1 YR BEGINNING POST CARCINOGEN TREATMENT (STUDY DURATION: 24 MO), Route [Inhibitor]: GAVAGE, Species: MOUSE, Strain/Sex: SWISS/FEMALE, Target Tissue: Type of Lesion: SKIN: SARCOMA, Dose [Carcinogen]: 0.2 MG ON D 1 AND 7 AFTER BIRTH THEN 0.4 MG ON D 14 AND 21","2/18 (11%), 0/19 (0%), 100%, not calculated"
same,"tumour outcome (control, treated, inhibition, significance)","Carcinogen: SAFROLE, 94-59-7, 0.5 ML 1/WK FOR 1 YR BEGINNING POST CARCINOGEN TREATMENT (STUDY DURATION: 24 MO), Route [Inhibitor]: GAVAGE, Species: MOUSE, Strain/Sex: SWISS/MALE, Target Tissue: Type of Lesion: LIVER: HEPATOCELLULAR CARCINOMA, Dose [Carcinogen]: 0.2 MG ON D 1 AND 7 AFTER BIRTH THEN 0.4 MG ON D 14 AND 21","7/24 (29%), 0/24 (0%), 100%, p<0.005"
same,"tumour outcome (control, treated, inhibition, significance)","Carcinogen: SAFROLE, 94-59-7, 0.5 ML 1/WK FOR 1 YR BEGINNING POST CARCINOGEN TREATMENT (STUDY DURATION: 24 MO), Route [Inhibitor]: GAVAGE, Species: MOUSE, Strain/Sex: SWISS/MALE, Target Tissue: Type of Lesion: LUNG: PAPILLARY ADENOCARCINOMA, Dose [Carcinogen]: 0.2 MG ON D 1 AND 7 AFTER BIRTH THEN 0.4 MG ON D 14 AND 21","5/24 (21%), 1/24 (4%), 81%, not calculated"
same,"tumour outcome (control, treated, inhibition, significance)","Carcinogen: SAFROLE, 94-59-7, 0.5 ML 1/WK FOR 1 YR BEGINNING POST CARCINOGEN TREATMENT (STUDY DURATION: 24 MO), Route [Inhibitor]: GAVAGE, Species: MOUSE, Strain/Sex: SWISS/MALE, Target Tissue: Type of Lesion: SKIN: SARCOMA, Dose [Carcinogen]: 0.2 MG ON D 1 AND 7 AFTER BIRTH THEN 0.4 MG ON D 14 AND 21","2/24 (8%), 0/24 (0%), 100%, not calculated"
same,"tumour outcome (control, treated, inhibition, significance)","Carcinogen: SAFROLE, 94-59-7, 0.5 ML 1/WK FOR 1 YR BEGINNING POST CARCINOGEN TREATMENT (STUDY DURATION: 24 MO), Route [Inhibitor]: GAVAGE, Species: MOUSE, Strain/Sex: SWISS/MALE, Target Tissue: Type of Lesion: SPLEEN: LYMPHOMA, Dose [Carcinogen]: 0.2 MG ON D 1 AND 7 AFTER BIRTH THEN 0.4 MG ON D 14 AND 21","6/24 (25%), 1/24 (4%), 84%, not calculated"
same,"tumour outcome (control, treated, inhibition, significance)","Carcinogen: SAFROLE, 94-59-7, 0.5 ML 1/WK FOR 1 YR BEGINNING POST CARCINOMA TREATMENT (STUDY DURATION: 24 MO), Route [Inhibitor]: GAVAGE, Species: MOUSE, Strain/Sex: SWISS/FEMALE, Target Tissue: Type of Lesion: SPLEEN: LYMPHOMA, Dose [Carcinogen]: 0.2 MG ON D 1 AND 7 AFTER BIRTH THEN 0.4 MG ON D 14 AND 21","9/18 (50%), 2/19 (11%), 78%, not calculated"
same,"tumour outcome (control, treated, inhibition, significance)","Carcinogen: TANNIC ACID, 1401-55-4, 0.5 ML 1/WK FOR 1 YR BEGINNING POST CARCINOGEN TREATMENT (STUDY DURATION: 24 MO), Route [Inhibitor]: GAVAGE, Species: MOUSE, Strain/Sex: SWISS/FEMALE, Target Tissue: Type of Lesion: LUNG: PAPILLARY ADENOCARCINOMA, Dose [Carcinogen]: 25 MG/KG BW ON D 1, 7, 14 AND 21 AFTER BIRTH","2/8 (25%), 0/9 (0%), 100%, not calculated"
same,"tumour outcome (control, treated, inhibition, significance)","Carcinogen: TANNIC ACID, 1401-55-4, 0.5 ML 1/WK FOR 1 YR BEGINNING POST CARCINOGEN TREATMENT (STUDY DURATION: 24 MO), Route [Inhibitor]: GAVAGE, Species: MOUSE, Strain/Sex: SWISS/FEMALE, Target Tissue: Type of Lesion: SPLEEN: LYMPHOMA, Dose [Carcinogen]: 25 MG/KG BW ON D 1, 7, 14 AND 21 AFTER BIRTH","4/8 (50%), 3/9 (33%), 34%, not calculated"
same,"tumour outcome (control, treated, inhibition, significance)","Carcinogen: TANNIC ACID, 1401-55-4, 0.5 ML 1/WK FOR 1 YR BEGINNING POST CARCINOGEN TREATMENT (STUDY DURATION: 24 MO), Route [Inhibitor]: GAVAGE, Species: MOUSE, Strain/Sex: SWISS/MALE, Target Tissue: Type of Lesion: LUNG: PAPILLARY ADENOCARCINOMA, Dose [Carcinogen]: 25 MG/KG BW ON D 1, 7, 14 AND 21 AFTER BIRTH","3/12 (25%), 0/12 (0%), 100%, not calculated"
same,"tumour outcome (control, treated, inhibition, significance)","Carcinogen: TANNIC ACID, 1401-55-4, 0.5 ML 1/WK FOR 1 YR BEGINNING POST CARCINOGEN TREATMENT (STUDY DURATION: 24 MO), Route [Inhibitor]: GAVAGE, Species: MOUSE, Strain/Sex: SWISS/MALE, Target Tissue: Type of Lesion: SPLEEN: LYMPHOMA, Dose [Carcinogen]: 25 MG/KG BW ON D 1, 7, 14 AND 21 AFTER BIRTH","5/12 (42%), 3/12 (25%), 40%, not calculated"
